Assay results taken from patent publication US9889150B2, “Agents for the prevention and/or treatment of central nervous system damage” (The University Of Liverpool, priority 2012, dated 2018).
Values joined by “and” are separate entries in the source; they are usually repeats but may differ in a detail not shown here. Equal entries are not always repeated. “Also recorded” adds a separate entry of the source. Where two headings read alike, the source gives them in different places.

Legend:
Factor Xa (Homo sapiens) [1] = biological target: T1, Factor Xa (Homo sapiens); test: Factor Xa colorimetric substrate assay with antithrombin III; format: biochemical; details: tested up to 100 ug/ml
T1 construct: purchased Chromogenix
T1 sequence (P01008 33-464): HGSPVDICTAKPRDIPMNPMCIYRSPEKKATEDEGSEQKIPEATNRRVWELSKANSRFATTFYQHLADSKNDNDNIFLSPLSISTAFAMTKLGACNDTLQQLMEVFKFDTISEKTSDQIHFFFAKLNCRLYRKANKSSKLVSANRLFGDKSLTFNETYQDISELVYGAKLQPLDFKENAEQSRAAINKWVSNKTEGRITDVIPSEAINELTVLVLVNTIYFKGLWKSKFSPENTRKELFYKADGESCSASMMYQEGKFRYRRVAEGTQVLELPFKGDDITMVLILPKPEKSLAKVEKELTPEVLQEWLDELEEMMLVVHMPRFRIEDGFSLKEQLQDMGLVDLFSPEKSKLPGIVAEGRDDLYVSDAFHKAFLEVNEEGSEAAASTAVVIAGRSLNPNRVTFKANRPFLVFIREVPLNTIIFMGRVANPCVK
Description: (§1) Factor Xa and Factor II activity was measured using a colorimetric substrate assay as previously described^17. Briefly, in a 96 well ELISA plate, antithrombin III (American Diagnostica, 30 mIU/ml final concentration) was incubated with heparin or polysaccharide fractions in 0.9% NaCl at 37° C. for 2 minutes. Factor IIa (Sigma, 15 mU/ml final concentration) or Factor Xa (Thermo Scientific, 15 mU/ml final concentration) was added and the samples incubated for a further 1 minute at 37° C. Factor Xa Chromogenic substrate (Sigma, 240 uM final concentration) was added to the samples and incubated for 10 minutes at 37° C. The reaction was stopped with glacial acetic acid (Sigma, 25% final concentration). Colour change of the substrate was measured at 405 nm.
(§2) For all assays, heparins and polysaccharides were tested up to 100 ug/ml.

normal human plasma [2] = test: APTT assay; format: biochemical; details: tested up to 100 ug/ml
Description: (§3) APTT and PT assays were performed using a Axis Shield Thrombotrack 1 instrument using normal human plasma, Pathrombin SL reagent and Thromborel S (all from Axis Shield) reagents according to manufacturers instructions.
as §2

Factor Xa (Homo sapiens) [3] = test system: T1, Factor Xa (Homo sapiens); test: Anti-factor Xa activity against PIMH standard, Coatest Heparin test kit; format: biochemical; details: compared with standard heparin (HEP1)
Description: Anti Factor Xa activity can be measured against a PIMH standard of known activity (Sigma, UK) using a diagnostic grade Coatest Heparin test kit (Chromogenix, MA), adapted to a 96-well plate format, reading A405 (Polarstar plate reader (BMG LabTechnologies, U.K.))^17.
The anti-factor Xa activity was measured against a PIMH standard of known activity using a diagnostic grade Coatest Heparin test kit (Chromogenix, MA), adapted to a 96-well plate format, reading A405.

OECs and astrocytes [4] = test: OEC:astrocyte confrontation assay (boundary formation); format: cell-based, Sprague-Dawley rat; design: key to graded score of boundary formation: mingling (−); partial boundary (+/−); complete boundary (++); details: 2 days of treatment; for boundary formation between OECs and astrocytes: modified heparins 10 μg/ml
Description: (§4) All primary neural cultures were generated from Sprague-Dawley rat pups of either sex. As described previously^10,37, purified type 1 astrocytes were prepared by digesting cortices (dissected from 1-day old Sprague Dawley (SD) rats) in 1.33% (w/v) collagenase (Sigma-Aldrich, Gillingham, UK), seeding (˜2×10^7 cells per 75 cm^2 flask) and culturing the cells in poly-L-lysine (PLL, 13.3 μg/ml, Sigma-Aldrich, Gillingham, UK) coated 75 cm2 flasks for 10-12 days. The cells were maintained in DMEM (Invitrogen, Paisley, Scotland) supplemented with 10% (v/v) foetal bovine serum (FBS) (Sigma-Aldrich, Gillingham, UK) and L-glutamine (2 mM, Sigma-Aldrich, Gillingham, UK) (DMEM-FBS). Confluent flasks were shaken on a rotary platform overnight at 37° C. to remove contaminating oligodendrocyte precursor cells. The remaining cells were 85-95% type 1 astrocytes as identified by labelling for glial fibrillary acidic protein (GFAP), an astrocyte cell specific marker.
OECs were isolated from the olfactory bulb of 7 day old SD rat pups and purified using magnetic nanoparticles (STEMCELL Technologies, UK) pre-bound with the p75^NTR antibody (mouse IgG1, Abcam, Cambridge, UK)^30. The cells were grown in low glucose DMEM with 5% (v/v) FBS and 2 mM L-glutamine and further supplemented with DMEM-BS (Bottenstein, 1979), FGF2 (25 ng/ml, Peprotech, London UK), heregulin β-1 (50 ng/ml, R&D Systems, Oxon, UK), forskolin (5×10^-7 M Sigma-Aldrich, Gillingham, UK) and astrocyte conditioned media (ACM) (1:5, fresh serum-free media taken after incubation with a confluent astrocyte monolayer for 48 h)^18, 37.
Confrontation assays were performed as described by Wilby et al. (1999) and Lakatos et al. (2000) with some modifications^10,48. Briefly, 70 μl containing 10,000 OECs or SCs were seeded into one well of a silicon Ibidi culture insert on a PLL-coated glass coverslip (Ibidi GmbH, Munich, Germany). Into the opposing, parallel well, 10,000 astrocytes were seeded. Cells were allowed to attach for 1 h before careful removal of the insert followed by a wash with DMEM-FBS to remove unattached cells. Cultures were maintained in DMEM-FBS and allowed to grow towards each other over a period of 5-7 days, allowing time for cells to make contact and interact^10. In some experiments, modified heparins or blocking antibodies were added to the cultures after the cells had contacted each other. Cultures were then immunolabelled using anti-GFAP for astrocytes (1:500; anti-rabbit (Dako, Ely, UK)) and anti-p75NTR for OECs and SCs (1:1; IgG1; hybridoma supernatant^49. Fluorescent images were captured using an Olympus BX51 fluorescent microscope and Image-Pro software. Using Adobe Photoshop Elements 7.0, a 300 μm line was drawn along the interface between astrocytes and either OECs or SCs. The numbers of OECs or SCs crossing the cell:cell boundary were counted and averaged over five randomly chosen fields. Experiments were repeated at least three times.
Modified heparins were produced semisynthetically by chemical modification (selective desulfation) of heparin as described in Example 1. These structurally distinct, model “HS-mimetic” polysaccharides^50 are useful tools for investigating structure-activity relationships of HS^15-17,31. Heparins were added to confrontation assays at 10 μg/ml at the stage when cells made contact (day 0) and treatment was repeated on day 2. Cultures were fixed and stained as described above on day 3. […]
Purified OECs were seeded at a density of 5000 cells/100 μl into one chamber of an Ibidi culture insert (Ibidi GmbH, Munich, Germany) sealed onto a PLL coated coverslip in a well of a 24-well plate. Cells were cultured in defined OEC medium for 24 h, after which, the medium was replaced with low serum (2% (v/v) FBS) OEC medium containing 1 μM siRNA. siRNA sequences were obtained from Dharmacon/Thermo Scientific (Sulf 1: E-093746-00-0005; Sulf2: E-093673-00-0005; non-targeting: D-001910-01-05; Thermo Fisher Scientific Inc, IL, USA). […]

normal human plasma [5] = test: PT assay; format: biochemical; details: tested up to 100 ug/ml
Description: as §3, §2

SCs and astrocytes = test: SC:astrocyte confrontation assay (boundary formation); format: cell-based, Sprague-Dawley rat; details: modified heparins 10 μg/ml, 2 days of treatment
Description: as §4
SCs were purified using a modification of the method described by Brockes and colleagues^20. This modification involved treating the cultures with cytosine arabinoside (AraC, 10^−5 M, Sigma-Aldrich, Gillingham, UK), followed by incubation with anti-Thy1.1 antibody (1:1 supernatant, Sigma-Aldrich, Gillingham, UK) and rabbit complement (1:6, Harlan Laboratories Ltd., UK) to reduce contamination by fibroblasts^10. […]
Confrontation assays were performed as described by Wilby et al. (1999) and Lakatos et al. (2000) with some modifications^10,48. […] Cultures were then immunolabelled using anti-GFAP for astrocytes (1:500; anti-rabbit (Dako, Ely, UK)) and anti-p75NTR for OECs and SCs (1:1; IgG1; hybridoma supernatant^49. Fluorescent images were captured using an Olympus BX51 fluorescent microscope and Image-Pro software. Using Adobe Photoshop Elements 7.0, a 300 μm line was drawn along the interface between astrocytes and either OECs or SCs. The numbers of OECs or SCs crossing the cell:cell boundary were counted and averaged over five randomly chosen fields. Experiments were repeated at least three times. […]

Factor IIa = biological target: T2, Factor IIa (Homo sapiens, UniProt P00734+P01008); test: Factor IIa colorimetric substrate assay with antithrombin III; format: biochemical; details: tested up to 100 ug/ml
T2 construct: Factor IIa (Sigma, 15 mU/ml final concentration); purchased Sigma (Factor IIa); American Diagnostica (antithrombin III)
Description: as §1, §2

OECs and astrocytes [6] = details: previous work; cited from earlier work
[7] = Celsus Labs lot PH-42800; cited from earlier work

Substance | Anticoagulant activity (anti-Xa activity) (Factor Xa (Homo sapiens) [3]) | IC50 Factor Xa (Factor Xa (Homo sapiens) [1]) | IC50 APTT (normal human plasma [2]) | IC50 PT (normal human plasma [5]) | IC50 Factor IIa (Factor IIa) | other results
6-O-desulphated, N-acetylated heparin [HEP6] | 0.03% | NI (No inhibition of coagulation up to 100 ug/ml of compound) | NI (No inhibition of coagulation up to 100 ug/ml of compound) | NI (No inhibition of coagulation up to 100 ug/ml of compound) | NI (No inhibition of coagulation up to 100 ug/ml of compound) | boundary formation between OECs and astrocytes (OECs and astrocytes [4]; listed as Hep 6): do not promote boundary formation; boundary formation between OECs and astrocytes (OECs and astrocytes [4]; listed as Hep6): did not; SCs mingling with astrocytes / boundary formation (SCs and astrocytes; listed as Hep 6): increased number of SCs mingling with astrocytes; also recorded: significantly increased cell mingling
Heparin [reference compound] |  | 0.9 µg/mL and 0.9295 µg/mL | 1.2 µg/mL and 1.2461 µg/mL | 41.4 µg/mL and 41.4005 µg/mL | 1.0 µg/mL and 1.0326 µg/mL | graded score of boundary formation (OECs and astrocytes [4]; 10 μg/ml): ++; boundary formation between OECs and astrocytes (OECs and astrocytes [6]): induce a boundary between OECs and astrocytes
Ido 2-de-O-sulphated, N-acetylated heparin [HEP5] | 0.03% | NI (No inhibition of coagulation up to 100 ug/ml of compound) | NI (No inhibition of coagulation up to 100 ug/ml of compound) | NI (No inhibition of coagulation up to 100 ug/ml of compound) | NI (No inhibition of coagulation up to 100 ug/ml of compound) | boundary formation between OECs and astrocytes (OECs and astrocytes [4]): did not
6-O-desulphated heparin [HEP4] | 0.5% |  |  |  |  | boundary formation between OECs and astrocytes (OECs and astrocytes [4]; listed as Hep 4): lower boundary forming activity; boundary formation between OECs and astrocytes (OECs and astrocytes [4]; listed as Hep4): induced boundaries between OECs and astrocytes
PIMH [HEP1, reference compound] | 100% |  |  |  |  | anticoagulant activity [7]: 201 IU/mg; boundary formation between OECs and astrocytes (OECs and astrocytes [4]): induced boundaries between OECs and astrocytes; also recorded: induced the strongest boundaries
Per-sulphated heparin [HEP9] | 35.0% |  |  |  |  | boundary formation between OECs and astrocytes (OECs and astrocytes [4]; listed as Hep 9): induced the strongest boundaries; boundary formation between OECs and astrocytes (OECs and astrocytes [4]; listed as Hep9): induced boundaries between OECs and astrocytes

Further lines, with some results ahead:

Anticoagulant activity (anti-Xa activity) (Factor Xa (Homo sapiens) [3]) | Substance | IC50 Factor Xa (Factor Xa (Homo sapiens) [1]) | IC50 APTT (normal human plasma [2]) | IC50 PT (normal human plasma [5]) | IC50 Factor IIa (Factor IIa) | other results
0.03% | 6-O-desulphated, 2-O-desulphated, N-acetylated heparin [HEP8] | NI (No inhibition of coagulation up to 100 ug/ml of compound) | NI (No inhibition of coagulation up to 100 ug/ml of compound) | NI (No inhibition of coagulation up to 100 ug/ml of compound) | NI (No inhibition of coagulation up to 100 ug/ml of compound) | boundary formation between OECs and astrocytes (OECs and astrocytes [4]; listed as Hep 8): do not promote boundary formation; boundary formation between OECs and astrocytes (OECs and astrocytes [4]; listed as Hep8): did not; SCs mingling with astrocytes / boundary formation (SCs and astrocytes; listed as Hep 8): increased number of SCs mingling with astrocytes; also recorded: significantly increased cell mingling
0.03% | 6-O-desulphated, 2-O-desulphated heparin [HEP7] | NI (No inhibition of coagulation up to 100 ug/ml of compound) | NI (No inhibition of coagulation up to 100 ug/ml of compound) | NI (No inhibition of coagulation up to 100 ug/ml of compound) | NI (No inhibition of coagulation up to 100 ug/ml of compound) | boundary formation between OECs and astrocytes (OECs and astrocytes [4]; listed as Hep 7): do not promote boundary formation; boundary formation between OECs and astrocytes (OECs and astrocytes [4]; listed as Hep7): did not; SCs mingling with astrocytes / boundary formation (SCs and astrocytes; listed as Hep 7): increased number of SCs mingling with astrocytes; also recorded: significantly increased cell mingling
0.03% | N-acetyl heparin [HEP2] |  |  |  |  | boundary formation between OECs and astrocytes (OECs and astrocytes [4]; listed as Hep 2): induced significant boundary formation; boundary formation between OECs and astrocytes (OECs and astrocytes [4]; listed as Hep2): induced boundaries between OECs and astrocytes
0.4% | Ido 2-de-O-sulphated heparin [HEP3] |  |  |  |  | boundary formation between OECs and astrocytes (OECs and astrocytes [4]; listed as Hep 3): lower boundary forming activity; boundary formation between OECs and astrocytes (OECs and astrocytes [4]; listed as Hep3): induced boundaries between OECs and astrocytes
